From patent publication EP4810483A1, “6- AND 5-HETEROARYL DERIVATIVES AND USE THEREOF” (CMS Research & Development Pte. Ltd., priority 2023, dated 2025)
Where two headings read alike, the source gives them in different places.

What was measured:
hERG potassium channel = target: T1, hERG potassium channel (Homo sapiens, UniProt Q12809); experiment: Automated patch clamp (Qpatch) assay for hERG potassium channel activity; format: cell-based
T1 construct: expressed in transfected cells; host or cells: CHO-hERG
Experimental: Assay Example 5: Automated patch clamp (Qpatch) assay for hERG potassium channel activity
CHO-hERG cells were cultured in 175 cm^2 culture flasks. When the cell density reached 60-80%, the culture medium was removed, the cells were washed once with 7 mL of PBS, and then 3 mL of cell dissociation reagent was added for digestion. After complete digestion, 7 mL of culture medium was added to neutralize, and the cells were centrifuged. The supernatant was aspirated, and the cells were resuspended in 5 mL of culture medium to achieve a cell density of 2~5 × 10^6/mL.
The compound stock solution was diluted with DMSO. 10 µL of compound stock solution was added to 20 µL of DMSO solution, followed by 3-fold serial dilution to obtain 6 DMSO concentrations. 4 µL of the compound solution at each of the six DMSO concentrations was added to 396 µL of extracellular solution to achieve a 100-fold dilution to obtain six intermediate concentrations. Then, 80 µL of the compound solution at each of the six intermediate concentrations was added to 320 µL of extracellular solution to achieve a 5-fold dilution to the desired final test concentrations. […]
The electrophysiological process was recorded. […] This voltage stimulation was applied every 15 seconds, and recorded for 2 minutes. The extracellular solution was then given, and recorded for 5 minutes. […]
The assay data were analyzed using GraphPad Prism 5.0 software. […]

CYP3A4 = CYP3A4 (Homo sapiens, UniProt P08684); experiment: Drug-drug interaction evaluation: CYP inhibition in human liver microsomes (cocktail method)
Experimental: (§1) The cocktail method using specific probe substrates for CYP1A2, CYP2C9, CYP2C19, CYP2D6 and CYP3A was used to evaluate the inhibitory effect of the compounds on the activity of human liver microsomal cytochrome P450 isoenzymes (CYP1A2, CYP2C9, CYP2C19, CYP2D6 and CYP3A).
(§2) Human liver microsomes, probe substrates, positive control inhibitors, and reduced nicotinamide adenine dinucleotide phosphate (NADPH).
(§3) To the corresponding wells of a reaction plate, 20 µL of substrate solution was added; to blank wells, 20 µL of potassium phosphate buffer was added.
(§4) To the corresponding wells, 2 µL of test compound and positive control working solution were added; to inhibitor-free and blank wells, 2 µL of solvent was added.
(§5) Human liver microsome working solution was prepared, and 158 µL of human liver microsome working solution was added to each well of the reaction plate.
(§6) The plate was pre-incubated at 37.0°C for 10 minutes.
(§7) To start the reaction, 20 µL of NADPH cofactor working solution was added to the reaction plate.
(§8) After incubation in a 37.0°C water bath with mixing for 10 minutes, 400 µL of stop solution was added to terminate the reaction.
(§9) The sample plate was centrifuged at 4000 rpm for 20 minutes.
(§10) 200 µL of supernatant was taken and mixed with 100 µL of pure water as diluent, and the plate was shaken to mix well.
(§11) Analysis was performed by liquid chromatography-tandem mass spectrometry (LC-MS/MS).
(§12) Using the percentage of remaining activity as the ordinate and the test compound concentration as the abscissa, a non-linear regression analysis was performed with a three-parameter or four-parameter model using XL fit software to calculate the IC50 value.
(§13) y = (max)/(1 + (((x)/(IC50)))^−hillslope) [formula]
(§14) y = min + (max−min)/(1 + (((x)/(IC50)))^−hillslope) [formula]
(§15) max = maximum enzyme activity; min = minimum enzyme activity; x = concentration of test compound or positive control inhibitor; y = enzyme activity at the corresponding concentration; hillslope = slope; IC50 = half-maximal inhibitory concentration. The four-parameter equation was used when the minimum enzyme activity was within ±10%; otherwise the three-parameter equation was used.

CYP2D6 = CYP2D6 (Homo sapiens, UniProt P10635); experiment: as above
Experimental: as §1, §2, §3, §4, §5, §6, §7, §8, §9, §10, §11, §12, §13, §14, §15

CYP2C9 = CYP2C9 (Homo sapiens, UniProt P11712); experiment: as above
Experimental: as §1, §2, §3, §4, §5, §6, §7, §8, §9, §10, §11, §12, §13, §14, §15

CYP1A2 = target: T2, CYP1A2 (Homo sapiens, UniProt P05177); experiment: as above
T2 sequence (P05177 1-516): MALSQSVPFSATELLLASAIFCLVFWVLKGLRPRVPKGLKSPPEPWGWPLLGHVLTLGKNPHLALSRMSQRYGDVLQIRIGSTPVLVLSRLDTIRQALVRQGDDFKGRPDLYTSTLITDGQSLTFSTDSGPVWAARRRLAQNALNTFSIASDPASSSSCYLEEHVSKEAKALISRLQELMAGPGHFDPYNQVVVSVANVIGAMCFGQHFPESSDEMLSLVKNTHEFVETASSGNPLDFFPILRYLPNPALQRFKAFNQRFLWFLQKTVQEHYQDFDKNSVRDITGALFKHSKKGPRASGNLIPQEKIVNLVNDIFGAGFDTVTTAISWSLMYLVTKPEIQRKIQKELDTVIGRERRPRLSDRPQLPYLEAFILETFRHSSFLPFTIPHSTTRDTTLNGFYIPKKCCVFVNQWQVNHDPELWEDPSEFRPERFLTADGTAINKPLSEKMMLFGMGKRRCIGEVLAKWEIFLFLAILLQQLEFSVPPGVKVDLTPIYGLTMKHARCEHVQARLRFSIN
Experimental: as §1, §2, §3, §4, §5, §6, §7, §8, §9, §10, §11, §12, §13, §14, §15

CYP2C19 = CYP2C19 (Homo sapiens, UniProt P33261); experiment: as above
Experimental: as §1, §2, §3, §4, §5, §6, §7, §8, §9, §10, §11, §12, §13, §14, §15

Chain of CYP3A4 (P08684 2-503): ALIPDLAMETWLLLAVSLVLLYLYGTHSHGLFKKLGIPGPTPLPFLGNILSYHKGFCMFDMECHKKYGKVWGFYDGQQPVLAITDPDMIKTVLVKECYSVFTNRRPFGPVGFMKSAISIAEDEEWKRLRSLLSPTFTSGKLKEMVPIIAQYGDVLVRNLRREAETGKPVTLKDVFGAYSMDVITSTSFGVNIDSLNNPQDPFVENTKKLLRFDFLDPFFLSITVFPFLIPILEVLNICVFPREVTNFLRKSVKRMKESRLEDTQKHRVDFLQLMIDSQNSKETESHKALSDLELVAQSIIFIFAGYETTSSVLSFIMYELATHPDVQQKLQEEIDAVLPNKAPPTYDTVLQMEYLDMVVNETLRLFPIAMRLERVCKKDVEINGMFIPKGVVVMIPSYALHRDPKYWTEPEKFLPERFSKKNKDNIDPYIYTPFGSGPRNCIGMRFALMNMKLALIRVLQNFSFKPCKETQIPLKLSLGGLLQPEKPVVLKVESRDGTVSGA
T1 sequence (Q12809 whole entry): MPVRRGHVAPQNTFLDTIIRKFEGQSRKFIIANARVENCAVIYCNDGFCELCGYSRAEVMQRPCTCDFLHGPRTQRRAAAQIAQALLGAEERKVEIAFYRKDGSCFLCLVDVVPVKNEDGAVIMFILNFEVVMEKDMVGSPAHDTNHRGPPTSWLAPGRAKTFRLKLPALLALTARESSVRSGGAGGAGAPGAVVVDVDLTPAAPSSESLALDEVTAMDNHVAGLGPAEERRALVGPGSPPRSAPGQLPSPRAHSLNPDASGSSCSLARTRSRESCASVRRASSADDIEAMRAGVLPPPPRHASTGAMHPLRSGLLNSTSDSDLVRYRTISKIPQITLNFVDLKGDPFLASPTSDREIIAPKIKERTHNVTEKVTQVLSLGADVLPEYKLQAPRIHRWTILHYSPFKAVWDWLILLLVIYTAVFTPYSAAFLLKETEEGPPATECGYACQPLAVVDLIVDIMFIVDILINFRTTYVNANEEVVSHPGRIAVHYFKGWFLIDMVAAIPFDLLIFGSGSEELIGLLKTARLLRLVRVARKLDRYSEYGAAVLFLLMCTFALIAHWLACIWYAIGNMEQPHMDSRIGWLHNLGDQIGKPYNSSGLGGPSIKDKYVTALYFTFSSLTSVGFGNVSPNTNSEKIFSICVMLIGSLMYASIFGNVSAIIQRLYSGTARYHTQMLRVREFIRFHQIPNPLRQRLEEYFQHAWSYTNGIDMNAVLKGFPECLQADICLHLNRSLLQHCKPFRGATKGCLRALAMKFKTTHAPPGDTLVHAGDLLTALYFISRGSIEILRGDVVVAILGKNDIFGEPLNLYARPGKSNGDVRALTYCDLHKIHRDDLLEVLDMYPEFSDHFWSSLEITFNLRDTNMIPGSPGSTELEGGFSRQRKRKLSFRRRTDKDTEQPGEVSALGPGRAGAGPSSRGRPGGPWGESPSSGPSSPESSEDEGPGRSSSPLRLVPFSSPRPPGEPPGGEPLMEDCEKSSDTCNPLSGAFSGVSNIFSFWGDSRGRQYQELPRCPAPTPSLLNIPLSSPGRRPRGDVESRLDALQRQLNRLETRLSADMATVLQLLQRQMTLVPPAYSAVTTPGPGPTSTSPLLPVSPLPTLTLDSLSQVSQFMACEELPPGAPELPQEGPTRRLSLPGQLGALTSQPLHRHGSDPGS
Chain of CYP2C9 (P11712 whole entry): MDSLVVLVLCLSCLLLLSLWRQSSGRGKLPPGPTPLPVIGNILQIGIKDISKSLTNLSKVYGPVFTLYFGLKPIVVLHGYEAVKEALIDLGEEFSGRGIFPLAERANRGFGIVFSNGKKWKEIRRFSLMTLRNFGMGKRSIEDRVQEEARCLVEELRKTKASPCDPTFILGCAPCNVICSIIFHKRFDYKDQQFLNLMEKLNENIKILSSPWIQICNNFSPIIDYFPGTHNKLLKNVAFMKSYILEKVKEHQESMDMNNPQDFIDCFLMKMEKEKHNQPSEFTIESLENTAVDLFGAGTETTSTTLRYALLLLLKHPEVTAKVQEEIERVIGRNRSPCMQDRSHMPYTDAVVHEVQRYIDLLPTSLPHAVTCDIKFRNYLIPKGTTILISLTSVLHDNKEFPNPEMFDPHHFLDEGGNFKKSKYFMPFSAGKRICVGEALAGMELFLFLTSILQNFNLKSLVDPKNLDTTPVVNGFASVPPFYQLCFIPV
Chain of CYP2C19 (P33261 whole entry): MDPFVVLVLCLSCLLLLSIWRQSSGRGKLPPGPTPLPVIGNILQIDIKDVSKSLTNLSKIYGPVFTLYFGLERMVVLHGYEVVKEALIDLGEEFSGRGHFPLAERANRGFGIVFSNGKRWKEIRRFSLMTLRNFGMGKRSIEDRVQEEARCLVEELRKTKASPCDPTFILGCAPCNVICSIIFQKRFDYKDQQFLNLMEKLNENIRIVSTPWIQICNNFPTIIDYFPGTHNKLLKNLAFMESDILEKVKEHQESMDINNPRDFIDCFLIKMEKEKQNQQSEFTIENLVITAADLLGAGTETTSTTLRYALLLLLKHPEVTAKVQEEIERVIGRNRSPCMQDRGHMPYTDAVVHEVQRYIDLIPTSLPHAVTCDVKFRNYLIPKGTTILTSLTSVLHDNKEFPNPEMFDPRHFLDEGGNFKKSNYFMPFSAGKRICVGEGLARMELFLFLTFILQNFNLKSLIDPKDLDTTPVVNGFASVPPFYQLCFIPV
Chain of CYP2D6 (P10635 whole entry): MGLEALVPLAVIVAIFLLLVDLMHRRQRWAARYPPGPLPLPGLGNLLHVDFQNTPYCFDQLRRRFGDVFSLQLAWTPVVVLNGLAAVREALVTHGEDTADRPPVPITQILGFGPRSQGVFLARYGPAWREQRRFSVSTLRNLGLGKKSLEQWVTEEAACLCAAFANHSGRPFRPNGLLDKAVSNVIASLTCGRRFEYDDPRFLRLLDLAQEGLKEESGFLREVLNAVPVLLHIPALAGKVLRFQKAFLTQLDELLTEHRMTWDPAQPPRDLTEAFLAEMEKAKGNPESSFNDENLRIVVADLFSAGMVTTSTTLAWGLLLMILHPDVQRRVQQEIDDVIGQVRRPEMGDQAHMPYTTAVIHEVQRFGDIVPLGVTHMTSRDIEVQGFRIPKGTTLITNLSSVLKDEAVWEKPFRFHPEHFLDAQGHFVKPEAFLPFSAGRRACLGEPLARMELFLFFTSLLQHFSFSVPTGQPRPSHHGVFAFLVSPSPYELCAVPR

Structure (SMILES) | IC50 (hERG potassium channel; CHO-hERG cells, Qpatch, highest test concentration 40.00 µM, read-out: IC50) [µM] | IC50 (CYP3A4) [µM] | IC50 (hERG potassium channel) [µM] | IC50 (CYP2D6) [µM] | IC50 (CYP2C9) [µM] | IC50 (CYP1A2) [µM] | IC50 (CYP2C19) [µM]
Cc1c(NC(=O)CC(C)(C)C)n(C)c2cc(Nc3ccc(F)cc3)ccc12 [Compound 1] | > 40 | – | – | – | – | – | –
Cc1c(NC(=O)CC(C)(C)C)n(C)c2cc(Nc3ccc(C(F)(F)F)cc3)ccc12 [Compound 5] | – | > 50 | > 40 | – | – | – | –
Cc1nc(Nc2ccc3c(C)c(NC(=O)CC(C)(C)C)n(C)c3c2)ccc1F [Compound 41] | – | > 50 | – | > 50 | 11 | 11 | > 50
